Reference: PMC5234074 (2017)

Tests used:
[1] = tested on: 143 nt thiC transcript (without RNAP) (RNA, riboswitch) UAAUUUCUUGUCGGAGUGCCUUAACUGGCUGAGACCGUUUAUUCGGGAUCCGCGGAACCUGAUCAGGCUAAUACCUGCGAAGGGAACAAGAGUUAAUCUGCUAUCGCAUCGCCCCUGCGGCGAUCGUCUCUUGCUUCAUCCGU; experiment: RNase H cleavage of free transcript; details: 20 mM MgCl2, 20 mM NaCl (transcription); 20 mM MgCl2, 100 mM KCl (RNase H step); Tris-HCl pH 8.0, 37 °C; 10 μM TPP; cleavage ratio higher than 158 nt transcript
[2] = tested on: EC-100 (thiC 1-100 nascent transcript) (RNA, riboswitch) UAAUUUCUUGUCGGAGUGCCUUAACUGGCUGAGACCGUUUAUUCGGGAUCCGCGGAACCUGAUCAGGCUAAUACCUGCGAAGGGAACAAGAGUUAAUCUG; experiment: RNase H cleavage of stalled elongation complex, P1 probe; details: 20 mM MgCl2, 20 mM NaCl (transcription); 20 mM MgCl2, 100 mM KCl (RNase H step); Tris-HCl pH 8.0, 37 °C; 10 μM TPP; cleavage ratio 1.3; RNAP bound
[3] = tested on: EC-108 (thiC 1-108 nascent transcript) (RNA, riboswitch) UAAUUUCUUGUCGGAGUGCCUUAACUGGCUGAGACCGUUUAUUCGGGAUCCGCGGAACCUGAUCAGGCUAAUACCUGCGAAGGGAACAAGAGUUAAUCUGCUAUCGCA; experiment: as above; details: 20 mM MgCl2, 20 mM NaCl (transcription); 20 mM MgCl2, 100 mM KCl (RNase H step); Tris-HCl pH 8.0, 37 °C; 10 μM TPP; cleavage ratio 6.7; RNAP bound
[4] = tested on: EC-207 (thiC 1-207 nascent transcript) (RNA, riboswitch) UAAUUUCUUGUCGGAGUGCCUUAACUGGCUGAGACCGUUUAUUCGGGAUCCGCGGAACCUGAUCAGGCUAAUACCUGCGAAGGGAACAAGAGUUAAUCUGCUAUCGCAUCGCCCCUGCGGCGAUCGUCUCUUGCUUCAUCCGUCGUCUGACAAGCCACGUCCUUAACUUUUUGGAAUGAGCUAUGUCUGCAACAAAACUGACCCGCC; experiment: as above; details: 20 mM MgCl2, 20 mM NaCl (transcription); 20 mM MgCl2, 100 mM KCl (RNase H step); Tris-HCl pH 8.0, 37 °C; 10 μM TPP; RNAP bound; sensing partially recovered
[5] = tested on: 158 nt thiC transcript (without RNAP) (RNA, riboswitch) UAAUUUCUUGUCGGAGUGCCUUAACUGGCUGAGACCGUUUAUUCGGGAUCCGCGGAACCUGAUCAGGCUAAUACCUGCGAAGGGAACAAGAGUUAAUCUGCUAUCGCAUCGCCCCUGCGGCGAUCGUCUCUUGCUUCAUCCGUCGUCUGACAAGCCAC; experiment: RNase H cleavage of free transcript; details: 20 mM MgCl2, 20 mM NaCl (transcription); 20 mM MgCl2, 100 mM KCl (RNase H step); Tris-HCl pH 8.0, 37 °C; 10 μM TPP; cleavage ratio 3.4; less efficient than EC-158
[6] = tested on: EC-197 (thiC 1-197 nascent transcript) (RNA, riboswitch) UAAUUUCUUGUCGGAGUGCCUUAACUGGCUGAGACCGUUUAUUCGGGAUCCGCGGAACCUGAUCAGGCUAAUACCUGCGAAGGGAACAAGAGUUAAUCUGCUAUCGCAUCGCCCCUGCGGCGAUCGUCUCUUGCUUCAUCCGUCGUCUGACAAGCCACGUCCUUAACUUUUUGGAAUGAGCUAUGUCUGCAACAAAA; experiment: RNase H cleavage of stalled elongation complex, P1 probe; details: 20 mM MgCl2, 20 mM NaCl (transcription); 20 mM MgCl2, 100 mM KCl (RNase H step); Tris-HCl pH 8.0, 37 °C; 10 μM TPP; RNAP bound; sensing partially recovered

binding [1]: yes
binding [2]: weak
binding [3]: yes
binding [4]: yes
binding [5]: yes
binding [6]: yes
Compound: Cc1ncc(C[n+]2csc(CCOP(=O)(O)OP(=O)(O)O)c2C)c(N)n1
